# Source: article PMC11221864, “FRAX486, a PAK inhibitor, overcomes ABCB1-mediated multidrug resistance in breast cancer cells” (Brazilian Journal of Medical and Biological Research, 2024)
# Biological target: T1, ABCB1 (Homo sapiens, UniProt P08183)
# T1 construct: ABCB1 in membrane vesicles from High Five insect cells
# Experiment: vanadate-sensitive ATPase assay in membrane vesicles
# Format: biochemical
# T1 sequence (P08183 whole entry): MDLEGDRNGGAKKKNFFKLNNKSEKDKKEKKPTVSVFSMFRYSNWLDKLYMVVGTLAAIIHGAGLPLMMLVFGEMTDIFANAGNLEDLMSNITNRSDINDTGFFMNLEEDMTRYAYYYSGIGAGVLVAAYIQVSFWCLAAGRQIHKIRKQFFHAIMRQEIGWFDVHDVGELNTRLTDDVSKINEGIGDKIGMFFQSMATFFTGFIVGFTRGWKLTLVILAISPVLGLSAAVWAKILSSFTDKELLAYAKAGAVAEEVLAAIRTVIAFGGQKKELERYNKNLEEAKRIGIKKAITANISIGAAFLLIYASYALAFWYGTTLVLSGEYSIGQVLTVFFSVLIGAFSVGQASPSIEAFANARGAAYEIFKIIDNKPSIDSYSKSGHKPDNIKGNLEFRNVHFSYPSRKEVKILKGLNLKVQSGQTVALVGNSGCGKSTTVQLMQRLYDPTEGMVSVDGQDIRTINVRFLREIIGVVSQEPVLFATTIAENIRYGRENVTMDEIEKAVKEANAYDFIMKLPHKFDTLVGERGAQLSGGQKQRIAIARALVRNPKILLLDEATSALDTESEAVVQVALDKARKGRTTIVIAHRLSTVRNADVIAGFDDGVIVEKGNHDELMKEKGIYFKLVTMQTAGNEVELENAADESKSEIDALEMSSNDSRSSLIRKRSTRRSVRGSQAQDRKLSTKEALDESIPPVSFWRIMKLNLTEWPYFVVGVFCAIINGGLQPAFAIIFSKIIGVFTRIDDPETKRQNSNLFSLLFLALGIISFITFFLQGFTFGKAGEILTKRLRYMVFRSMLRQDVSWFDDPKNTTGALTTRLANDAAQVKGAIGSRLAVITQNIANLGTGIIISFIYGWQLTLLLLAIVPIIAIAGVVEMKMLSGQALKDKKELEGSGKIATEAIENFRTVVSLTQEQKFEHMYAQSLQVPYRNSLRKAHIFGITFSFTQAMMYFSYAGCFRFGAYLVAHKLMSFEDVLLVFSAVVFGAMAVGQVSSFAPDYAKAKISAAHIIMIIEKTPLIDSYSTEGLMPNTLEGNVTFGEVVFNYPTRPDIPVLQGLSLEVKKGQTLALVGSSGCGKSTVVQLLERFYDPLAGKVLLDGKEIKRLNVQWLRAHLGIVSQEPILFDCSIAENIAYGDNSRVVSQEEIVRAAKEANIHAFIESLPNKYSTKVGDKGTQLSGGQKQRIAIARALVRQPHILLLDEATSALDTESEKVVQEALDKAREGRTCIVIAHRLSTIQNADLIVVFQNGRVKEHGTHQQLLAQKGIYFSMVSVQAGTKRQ
smiles,measurement,value
CCn1c(=O)c(-c2ccc(Cl)cc2Cl)cc2cnc(Nc3ccc(N4CCNCC4)c(F)c3)nc21 [FRAX486],IC50,20 nM
